Reference: patent US20090270413A1, “DI-T-BUTYLPHENYL PIPERAZINES AS CALCIUM CHANNEL BLOCKERS” (priority 2008, published 2009)

Assays:
Human Cav2.2 channels = target: T1, Human Cav2.2 channels (Homo sapiens, UniProt Q00975); assay: Block of Cav2.2 (N-type) channels expressed in HEK293 cells; type: cell-based; conditions: for inhibition at 10 µM / inhibition at 30 µM: HEK293; for inhibition at 10 µM: read-out: Cav 2.2 % Inh @ 10 μM; for inhibition at 30 µM: read-out: Cav 2.2 % Inh @ 30 μM; for IC50: read-out: Cav 2.2 IC50
T1 construct: expressed in transfected cells
T1 sequence (Q00975 whole entry): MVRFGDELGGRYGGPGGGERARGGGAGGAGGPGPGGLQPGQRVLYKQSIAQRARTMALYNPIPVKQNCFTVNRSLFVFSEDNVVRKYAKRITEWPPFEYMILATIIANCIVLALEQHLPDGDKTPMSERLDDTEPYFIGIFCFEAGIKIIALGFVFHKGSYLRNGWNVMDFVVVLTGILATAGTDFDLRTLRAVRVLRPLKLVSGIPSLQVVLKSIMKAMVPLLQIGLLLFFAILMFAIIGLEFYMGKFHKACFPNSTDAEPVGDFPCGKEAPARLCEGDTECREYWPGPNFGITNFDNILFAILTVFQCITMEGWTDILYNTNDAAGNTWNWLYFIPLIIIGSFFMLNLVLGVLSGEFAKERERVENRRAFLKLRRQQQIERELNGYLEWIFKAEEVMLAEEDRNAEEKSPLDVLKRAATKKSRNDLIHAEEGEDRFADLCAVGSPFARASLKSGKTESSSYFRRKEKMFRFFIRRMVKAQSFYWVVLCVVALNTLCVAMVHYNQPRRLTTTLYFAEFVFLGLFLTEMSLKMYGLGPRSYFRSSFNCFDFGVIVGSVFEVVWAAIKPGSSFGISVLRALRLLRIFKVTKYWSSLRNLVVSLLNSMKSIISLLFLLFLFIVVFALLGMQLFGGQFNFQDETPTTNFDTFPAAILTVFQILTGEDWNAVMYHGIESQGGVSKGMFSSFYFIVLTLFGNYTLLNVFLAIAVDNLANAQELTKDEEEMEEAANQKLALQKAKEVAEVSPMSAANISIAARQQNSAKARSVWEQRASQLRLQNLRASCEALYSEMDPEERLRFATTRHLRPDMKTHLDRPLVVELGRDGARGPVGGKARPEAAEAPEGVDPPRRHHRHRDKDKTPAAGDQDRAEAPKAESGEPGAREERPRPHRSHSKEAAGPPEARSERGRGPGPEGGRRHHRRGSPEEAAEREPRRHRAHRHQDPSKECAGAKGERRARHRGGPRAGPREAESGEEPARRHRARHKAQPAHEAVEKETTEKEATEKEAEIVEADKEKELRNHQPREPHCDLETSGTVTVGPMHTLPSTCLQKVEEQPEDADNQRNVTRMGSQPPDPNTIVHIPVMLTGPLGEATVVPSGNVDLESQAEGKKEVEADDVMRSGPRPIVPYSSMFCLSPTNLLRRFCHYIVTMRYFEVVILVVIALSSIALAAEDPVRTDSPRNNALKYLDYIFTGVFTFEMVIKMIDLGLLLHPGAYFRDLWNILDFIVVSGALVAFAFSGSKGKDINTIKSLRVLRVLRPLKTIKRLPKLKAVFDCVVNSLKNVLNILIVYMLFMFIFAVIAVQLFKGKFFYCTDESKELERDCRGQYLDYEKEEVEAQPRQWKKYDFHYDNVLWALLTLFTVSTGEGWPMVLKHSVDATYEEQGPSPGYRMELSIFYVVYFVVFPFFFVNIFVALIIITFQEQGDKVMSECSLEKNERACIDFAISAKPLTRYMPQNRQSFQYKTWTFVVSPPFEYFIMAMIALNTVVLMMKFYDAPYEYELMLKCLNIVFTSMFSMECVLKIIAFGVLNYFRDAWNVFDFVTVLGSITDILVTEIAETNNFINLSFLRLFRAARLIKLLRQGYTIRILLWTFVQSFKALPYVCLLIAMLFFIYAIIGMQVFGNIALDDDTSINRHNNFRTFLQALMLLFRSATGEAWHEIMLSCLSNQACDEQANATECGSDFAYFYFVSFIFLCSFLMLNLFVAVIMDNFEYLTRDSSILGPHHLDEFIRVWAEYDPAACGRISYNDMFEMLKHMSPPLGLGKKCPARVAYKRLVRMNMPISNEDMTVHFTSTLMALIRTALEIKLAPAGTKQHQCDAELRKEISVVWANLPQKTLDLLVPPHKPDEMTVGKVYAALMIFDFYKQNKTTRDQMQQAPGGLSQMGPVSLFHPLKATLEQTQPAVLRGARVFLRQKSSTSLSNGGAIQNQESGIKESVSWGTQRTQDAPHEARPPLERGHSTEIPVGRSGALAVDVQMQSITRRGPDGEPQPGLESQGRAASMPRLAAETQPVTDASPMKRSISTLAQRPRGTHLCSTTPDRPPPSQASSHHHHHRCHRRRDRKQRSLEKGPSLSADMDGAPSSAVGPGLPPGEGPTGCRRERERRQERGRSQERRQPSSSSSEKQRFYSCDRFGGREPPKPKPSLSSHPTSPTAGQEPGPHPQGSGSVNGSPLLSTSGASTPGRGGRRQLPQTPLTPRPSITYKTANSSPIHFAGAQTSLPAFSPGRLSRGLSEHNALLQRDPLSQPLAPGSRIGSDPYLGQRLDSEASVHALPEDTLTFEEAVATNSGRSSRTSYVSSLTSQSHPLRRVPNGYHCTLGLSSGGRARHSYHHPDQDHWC
T1 sequence (P54289 25-956 partner limits assumed): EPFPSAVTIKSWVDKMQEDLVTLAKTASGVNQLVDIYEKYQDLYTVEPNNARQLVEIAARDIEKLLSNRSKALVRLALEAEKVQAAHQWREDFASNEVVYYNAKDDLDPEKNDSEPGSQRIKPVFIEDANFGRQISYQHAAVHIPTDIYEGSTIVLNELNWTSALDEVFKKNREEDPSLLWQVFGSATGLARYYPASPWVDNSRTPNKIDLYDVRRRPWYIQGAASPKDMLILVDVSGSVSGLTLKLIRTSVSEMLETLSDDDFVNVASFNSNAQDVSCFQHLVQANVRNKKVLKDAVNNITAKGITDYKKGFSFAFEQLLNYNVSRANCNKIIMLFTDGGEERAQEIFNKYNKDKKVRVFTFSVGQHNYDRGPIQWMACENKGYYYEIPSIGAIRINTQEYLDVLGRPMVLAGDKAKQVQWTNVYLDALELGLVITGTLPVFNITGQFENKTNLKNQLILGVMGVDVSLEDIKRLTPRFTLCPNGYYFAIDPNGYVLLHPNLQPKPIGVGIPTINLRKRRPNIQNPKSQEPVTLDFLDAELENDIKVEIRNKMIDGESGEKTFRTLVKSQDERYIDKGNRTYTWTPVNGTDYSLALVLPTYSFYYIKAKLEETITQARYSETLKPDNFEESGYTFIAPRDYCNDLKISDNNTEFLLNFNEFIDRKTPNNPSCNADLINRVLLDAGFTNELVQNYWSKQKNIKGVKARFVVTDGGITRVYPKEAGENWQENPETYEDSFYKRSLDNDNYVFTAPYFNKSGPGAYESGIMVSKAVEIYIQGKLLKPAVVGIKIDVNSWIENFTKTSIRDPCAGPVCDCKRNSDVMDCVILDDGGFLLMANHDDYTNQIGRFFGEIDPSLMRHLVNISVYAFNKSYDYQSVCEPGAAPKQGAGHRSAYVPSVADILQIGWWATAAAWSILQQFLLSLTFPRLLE
T1 sequence (P54289 957-1103 partner limits assumed): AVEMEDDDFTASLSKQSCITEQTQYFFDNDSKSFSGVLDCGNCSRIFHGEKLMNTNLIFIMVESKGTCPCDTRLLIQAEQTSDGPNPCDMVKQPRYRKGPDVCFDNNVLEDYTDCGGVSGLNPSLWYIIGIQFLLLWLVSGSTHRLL
T1 sequence (P54284 whole entry partner): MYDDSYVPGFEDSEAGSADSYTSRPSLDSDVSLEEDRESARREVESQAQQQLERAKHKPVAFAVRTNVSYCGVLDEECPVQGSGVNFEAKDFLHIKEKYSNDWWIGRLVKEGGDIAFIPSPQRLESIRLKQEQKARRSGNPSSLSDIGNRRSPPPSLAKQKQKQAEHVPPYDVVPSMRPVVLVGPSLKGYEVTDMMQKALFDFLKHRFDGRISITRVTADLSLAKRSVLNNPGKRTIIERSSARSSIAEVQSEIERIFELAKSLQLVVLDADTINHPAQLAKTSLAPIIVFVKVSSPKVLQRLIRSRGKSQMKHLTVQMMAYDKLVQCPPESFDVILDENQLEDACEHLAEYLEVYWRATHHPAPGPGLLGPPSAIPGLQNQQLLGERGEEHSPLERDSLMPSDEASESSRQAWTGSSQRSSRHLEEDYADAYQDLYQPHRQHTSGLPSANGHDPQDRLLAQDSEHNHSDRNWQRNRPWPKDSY
Summary of the method: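 HEK293 cells co-expressing Cav2.2 with α2δ, β subunits and Kir2.3. Fluo-4 calcium influx: 30 min compound incubation at 25 °C in 4 mM (resting) or 12, 25 or 30 mM K+ (open/inactivated), then 70 mM K+ depolarisation. IonWorks HT barium-current patch clamp: 5 min compound, 2 Hz train of twenty 25 ms steps to +20 mV, first versus 20th pulse block.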

[1] = target: T2, Cav3.2 (T-type channel alpha-1H) (Homo sapiens, UniProt O95180); assay: T-type calcium channel voltage-clamp assay, Cav3.2; type: cell-based; conditions: read-out: Cav 3.2 IC50
T2 construct: expressed in transfected cells; host or cells: HEK 293
Experimental: (§1) The T-type calcium channel blocking activity of the compounds of this invention may be readily determined using the methodology well known in the art described by Xia, et al., Assay and Drug Development Tech., 1 (5), 637-645 (2003).
(§2) In a typical experiment ion channel function from HEK 293 cells expressing the T-type channel alpha-1G, H, or I (CaV 3.1, 3.2, 3.3) is recorded to determine the activity of compounds in blocking the calcium current mediated by the T-type channel alpha-1G, H, or I (CaV 3.1, 3.2, 3.3). In this T-type calcium (Ca^2+) antagonist voltage-clamp assay calcium currents are elicited from the resting state of the human alpha-1G, H, or I (CaV 3.1, 3.2, 3.3) calcium channel as follows. Sequence information for T-type (Low-voltage activated) calcium channels are fully disclosed in e.g., U.S. Pat. No. 5,618,720, U.S. Pat. No. 5,686,241, U.S. Pat. No. 5,710,250,U.S. Pat. No. 5,726,035, U.S. Pat. No. 5,792,846, U.S. Pat. No. 5,846,757, U.S. Pat. No. 5,851,824, U.S. Pat. No. 5,874,236, U.S. Pat. No. 5,876,958, U.S. Pat. No. 6,013,474, U.S. Pat. No. 6,057,114, U.S. Pat. No. 6,096,514, WO 99/28342, and J. Neuroscience, 19 (6):1912-1921 (1999). Cells expressing the t-type channels were grown in H3D5 growth media which is comprised DMEM, 6% bovine calf serum (HYCLONE), 30 micromolar Verapamil, 200 microgram/ml Hygromycin B, 1× Penicillin/Streptomycin. Glass pipettes are pulled to a tip diameter of 1-2 micrometer on a pipette puller. The pipettes are filled with the intracellular solution and a chloridized silver wire is inserted along its length, which is then connected to the headstage of the voltage-clamp amplifier. Trypsinization buffer was 0.05% Trypsin, 0.53 mM EDTA. The extracellular recording solution consists of (mM): 130 mM NaCl, 4 mM KCl, 1 mM MgCl2, 2 mM CaCl2, 10 mM HEPES, 30 Glucose, pH 7.4. The internal solution consists of (mM): 135 mM CsMeSO4, 1 MgCl2, 10 CsCl, 5 EGTA, 10 HEPES, pH 7.4, or 135 mM CsCl, 2 MgCl2, 3 MgATP, 2 Na2ATP, 1 Na2GTP, 5 EGTA, 10 HEPES, pH 7.4. Upon insertion of the pipette tip into the bath, the series resistance is noted (acceptable range is between 1-4 megaohm). The junction potential between the pipette and bath solutions is zeroed on the amplifier. The cell is then patched, the patch broken, and, after compensation for series resistance (>=80%), the voltage protocol is applied while recording the whole cell Ca2+ current response. Voltage protocols: (1) −80 mV holding potential every 20 seconds pulse to −20 mV for 40 msec duration; the effectiveness of the drug in inhibiting the current mediated by the channel is measured directly from measuring the reduction in peak current amplitude initiated by the voltage shift from −80 mV to −20 mV; (2). −100 mV holding potential every 15 seconds pulse to −20 mV for 40 msec duration; the effectiveness of the drug in inhibiting the current mediated by the channel is measured directly from measuring the reduction in peak current amplitude initiated by the shift in potential from −100 mV to […]. The difference in block at the two holding potentials was used to determine the effect of drug at differing levels of inactivation induced by the level of resting state potential of the cells. After obtaining control baseline calcium currents, extracellular solutions containing increasing concentrations of a test compound are washed on. Once steady state inhibition at a given compound concentration is reached, a higher concentration of compound is applied. % inhibition of the peak inward control Ca2+ current during the depolarizing step to −20 mV is plotted as a function of compound concentration.

[2] = target: T3, Cav3.1 (T-type channel alpha-1G) (Homo sapiens, UniProt O43497); assay: T-type calcium channel voltage-clamp assay, Cav3.1; type: cell-based; conditions: read-out: Cav 3.1 IC50
T3 construct: expressed in transfected cells; host or cells: HEK 293
Experimental: as §1, §2

[3] = tested on: T-type over L-type channels; conditions: cited from earlier work

Row | SMILES | inhibition at 10 µM (Human Cav2.2 channels) [%] | inhibition at 30 µM (Human Cav2.2 channels) [%] | IC50 (Human Cav2.2 channels) [nM] | IC50 [1] [nM] | IC50 [2] [nM] | selective for T-type over L-type channels [3]
1 | CC(C)(C)c1cc(N2CCN(C(=O)c3ccc(OCC(F)(F)F)nc3)CC2)cc(C(C)(C)C)c1 [Compound 47, (4-(3,5-di-tert-butylphenyol)piperazin-1-yl)(6-(2,2,2-trifluoroethoxy)pyridin-3-yl)methanone] | 101 | 104 | 1480 | 800 | 490 | –
2 | CC(C)(C)c1cc(N2CCN(C(=O)c3ccccc3)CC2)cc(C(C)(C)C)c1 [Compound 48, (4-(3,5-di-tert-butylphenyl)piperazin-1-yl)(phenyl)methanone] | 103 | 103 | 1480 | 610 | 370 | –
3 | Cc1cccc(C(=O)N2CCN(c3cc(C(C)(C)C)cc(C(C)(C)C)c3)CC2)n1 [Compound 49, (4-(3,5-di-tert-butylphenyl)piperazin-1-yl)(6-methylpyridin-2-yl)methanone] | 102 | 105 | 1660 | 1880 | 1520 | –
4 | COCC(=O)O[C@]1(CCN(C)CCCc2nc3ccccc3[nH]2)CCc2cc(F)ccc2[C@@H]1C(C)C [Mibefradil] | – | – | – | – | – | 10-30 fold
